Measured values: patent US20240043427A1 (Gilead Sciences, Inc., priority 2020, published 2024)
pEC50, pIC50: −log10 of the molar value.

Assays:
[1] = biological target: T1, CD73 (Homo sapiens (Human), UniProt P21589); format: biochemical; conditions: 1 mM NaH2PO4 in enzyme buffer, CD73 0.3 nM, AMP 15 uM
[2] = biological target: T1, CD73; experiment: MDA-MB-231 Cell Based CD73 Activity Assay (DMEM); conditions: MDA-MB-231-GFP cells, DMEM medium with 10% human plasma, 200 uM AMP

T1 sequence (P21589 27-574): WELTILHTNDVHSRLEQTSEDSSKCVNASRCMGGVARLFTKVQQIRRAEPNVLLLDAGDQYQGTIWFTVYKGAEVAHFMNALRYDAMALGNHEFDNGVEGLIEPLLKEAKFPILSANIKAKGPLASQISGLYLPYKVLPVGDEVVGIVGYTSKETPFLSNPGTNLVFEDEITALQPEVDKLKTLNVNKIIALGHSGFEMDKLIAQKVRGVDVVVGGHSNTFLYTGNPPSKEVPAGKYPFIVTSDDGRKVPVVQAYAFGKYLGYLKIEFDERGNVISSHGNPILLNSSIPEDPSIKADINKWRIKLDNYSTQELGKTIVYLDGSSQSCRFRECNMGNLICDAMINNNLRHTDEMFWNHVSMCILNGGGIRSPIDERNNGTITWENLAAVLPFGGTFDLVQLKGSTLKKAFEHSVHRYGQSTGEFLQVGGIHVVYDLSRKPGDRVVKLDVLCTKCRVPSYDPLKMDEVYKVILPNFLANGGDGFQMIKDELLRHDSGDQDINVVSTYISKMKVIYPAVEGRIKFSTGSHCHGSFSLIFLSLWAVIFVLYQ

| SMILES | pIC50 [1] | pEC50 [2] |
| --- | --- | --- |
| O=c1[nH]cc(-c2cc([C@H]3C[C@@H]3c3ccc4cnn(CC(F)F)c4c3)c3nccn3n2)c(=O)[nH]1 [Example 125, 5-(8-((1S,2S)-2-(1-(2,2-difluoroethyl)-1H-indazol-6-yl)cyclopropyl)imidazo[1,2-b]pyridazin-6-yl)pyrimidine-2,4(1H,3H)-dione] | 9.15 | 9.77 |
| O=c1[nH]cc(-c2cc([C@H]3C[C@@H]3c3ccc4ccn(CC(F)(F)F)c4n3)c3nccn3n2)c(=O)[nH]1 [Example 126, 5-(8-((1S,2S)-2-(1-(2,2,2-trifluoroethyl)-1H-pyrrolo[2,3-b]pyridin-6-yl)cyclopropyl)imidazo[1,2-b]pyridazin-6-yl)pyrimidine-2,4(1H,3H)-dione] | 8.95 | 9.34 |
| O=c1[nH]cc(-c2cc([C@H]3C[C@@H]3c3ccc4cnn(CC(F)F)c4c3F)c3nccn3n2)c(=O)[nH]1 [Example 129, 5-(8-((1S,2S)-2-(1-(2,2-difluoroethyl)-7-fluoro-1H-indazol-6-yl)cyclopropyl)imidazo[1,2-b]pyridazin-6-yl)pyrimidine-2,4(1H,3H)-dione] | 8.95 | 9.52 |
| O=c1[nH]cc(-c2cc([C@H]3C[C@@H]3c3ccc(OC(F)F)cn3)c3ncc(F)n3n2)c(=O)[nH]1 [Example 132, 5-(8-((1S,2S)-2-(5-(difluoromethoxy)pyridin-2-yl)cyclopropyl)-3-fluoroimidazo[1,2-b]pyridazin-6-yl)pyrimidine-2,4(1H,3H)-dione] | 8.92 | 7.71 |
| O=c1[nH]cc(-c2cc([C@H]3C[C@@H]3c3ccc4cnc(C(F)(F)F)cc4c3)c3nccn3n2)c(=O)[nH]1 [Example 133, 5-(8-((1S,2S)-2-(3-(trifluoromethyl)isoquinolin-6-yl)cyclopropyl)imidazo[1,2-b]pyridazin-6-yl)pyrimidine-2,4(1H,3H)-dione] | 9.04 | 8.80 |
| O=c1[nH]cc(-c2cc([C@H]3C[C@@H]3c3cc(C(F)(F)F)c4ncccc4c3)c3ncc(F)n3n2)c(=O)[nH]1 [Example 134, 5-(3-fluoro-8-((1S,2S)-2-(8-(trifluoromethyl)quinolin-6-yl)cyclopropyl)imidazo[1,2-b]pyridazin-6-yl)pyrimidine-2,4(1H,3H)-dione] | 8.93 | 7.64 |
| O=c1[nH]cc(-c2cc([C@H]3C[C@@H]3c3cc(C(F)(F)F)c4ncccc4c3)c3nccn3n2)c(=O)[nH]1 [Example 135, 5-(8-((1S,2S)-2-(8-(trifluoromethyl)quinolin-6-yl)cyclopropyl)imidazo[1,2-b]pyridazin-6-yl)pyrimidine-2,4(1H,3H)-dione] | 8.70 | 7.36 |
| O=c1[nH]cc(-c2cc([C@H]3C[C@@H]3c3ccc4c(C(F)(F)F)ccnc4c3)c3nccn3n2)c(=O)[nH]1 [Example 139, 5-(8-((1S,2S)-2-(4-(trifluoromethyl)quinolin-7-yl)cyclopropyl)imidazo[1,2-b]pyridazin-6-yl)pyrimidine-2,4(1H,3H)-dione] | 8.34 | 6.53 |
| O=c1[nH]cc(-c2cc([C@H]3C[C@@H]3c3ccc(C(F)(F)F)cn3)c3ncc(F)n3n2)c(=O)[nH]1 [Example 144, 5-(3-fluoro-8-((1S,2S)-2-(5-(trifluoromethyl)pyridin-2-yl)cyclopropyl)imidazo[1,2-b]pyridazin-6-yl)pyrimidine-2,4(1H,3H)-dione] | 8.64 | 8.21 |
| CC1(C)CN(c2cc(-c3c[nH]c(=O)[nH]c3=O)nn3cc(C4CC4)nc23)CC1(F)F [Example 145, 5-(2-cyclopropyl-8-(3,3-difluoro-4,4-dimethylpyrrolidin-1-yl)imidazo[1,2-b]pyridazin-6-yl)pyrimidine-2,4(1H,3H)-dione] | 7.69 | 7.38 |
| O=c1[nH]cc(-c2cc(N3CC(F)C4(CC4)C3)n3nccc3n2)c(=O)[nH]1 (stereo not shown) [Example 147, 5-(7-(7-fluoro-5-azaspiro[2.4]heptan-5-yl)pyrazolo[1,5-a]pyrimidin-5-yl)pyrimidine-2,4(1H,3H)-dione] | 7.41 | 7.02 |
| O=c1[nH]cc(-c2cc(N3CC(F)C4(CC4)C3)c3ncc(F)n3n2)c(=O)[nH]1 (stereo not shown) [Example 148, 5-(3-fluoro-8-(7-fluoro-5-azaspiro[2.4]heptan-5-yl)imidazo[1,2-b]pyridazin-6-yl)pyrimidine-2,4(1H,3H)-dione] | 8.10 | 7.75 |
| O=c1[nH]cc(-c2cc(N3CCC(F)(C(F)(F)F)C3)c3nccn3n2)c(=O)[nH]1 (stereo not shown) [Example 169, 5-(8-(3-fluoro-3-(trifluoromethyl)pyrrolidin-1-yl)imidazo[1,2-b]pyridazin-6-yl)pyrimidine-2,4(1H,3H)-dione] | 7.13 | 6.72 |
| O=c1[nH]cc(-c2cc(N3CC(F)C4(CC4)C3)c3nccn3n2)c(=O)[nH]1 (stereo not shown) [Example 171, 5-(8-(7-fluoro-5-azaspiro[2.4]heptan-5-yl)imidazo[1,2-b]pyridazin-6-yl)pyrimidine-2,4(1H,3H)-dione] | 8.50 | 7.85 |
| COc1ccc(C2CCN(c3cc(-c4c[nH]c(=O)[nH]c4=O)nn4ccnc34)C2)cc1 (stereo not shown) [Example 173, 5-(8-(3-(4-methoxyphenyl)pyrrolidin-1-yl)imidazo[1,2-b]pyridazin-6-yl)pyrimidine-2,4(1H,3H)-dione] | 8.44 | 7.05 |
| CC(C)[C@@H]1CCN(c2cc(-c3c[nH]c(=O)[nH]c3=O)nn3ccnc23)C1 [Example 174, (S)-5-(8-(3-isopropylpyrrolidin-1-yl)imidazo[1,2-b]pyridazin-6-yl)pyrimidine-2,4(1H,3H)-dione] | 7.16 | 6.67 |
| O=c1[nH]cc(-c2cc(N3CC[C@@H](C(F)(F)F)C3)c3nccn3n2)c(=O)[nH]1 [Example 175, (R)-5-(8-(3-(trifluoromethyl)pyrrolidin-1-yl)imidazo[1,2-b]pyridazin-6-yl)pyrimidine-2,4(1H,3H)-dione] | 8.44 | 7.64 |

Continued by rising pIC50 [1], values first:

| pIC50 [1] | pEC50 [2] | SMILES |
| --- | --- | --- |
| 7.45 | 6.87 | O=c1[nH]cc(-c2cc(N3CC(C(F)F)C4(CC4)C3)c3nccn3n2)c(=O)[nH]1 (stereo not shown) [Example 170, 5-(8-(7-(difluoromethyl)-5-azaspiro[2.4]heptan-5-yl)imidazo[1,2-b]pyridazin-6-yl)pyrimidine-2,4(1H,3H)-dione] |
| 7.96 | 7.23 | O=c1[nH]cc(-c2cc(N3CCC(F)(F)C3)c3ncc(F)n3n2)c(=O)[nH]1 [Example 176, 5-(8-(3,3-difluoropyrrolidin-1-yl)-3-fluoroimidazo[1,2-b]pyridazin-6-yl)pyrimidine-2,4(1H,3H)-dione] |
| 8.21 | 7.33 | O=c1[nH]cc(-c2cc([C@H]3C[C@@H]3c3ccc(F)cc3F)c3nc(C4CC4)cn3n2)c(=O)[nH]1 [Example 146, 5-(2-cyclopropyl-8-((1S,2S)-2-(2,4-difluorophenyl)cyclopropyl)imidazo[1,2-b]pyridazin-6-yl)pyrimidine-2,4(1H,3H)-dione] |
| 8.59 | 9.21 | O=c1[nH]cc(-c2cc([C@@H]3C[C@H]3c3ccc4cnn(CC(F)F)c4c3)c3nccn3n2)c(=O)[nH]1 [Example 124, 5-(8-((1R,2R)-2-(1-(2,2-difluoroethyl)-1H-indazol-6-yl)cyclopropyl)imidazo[1,2-b]pyridazin-6-yl)pyrimidine-2,4(1H,3H)-dione] |
| 8.64 | 8.05 | O=c1[nH]cc(-c2cc([C@H]3C[C@@H]3c3ccc(C(F)(F)F)nc3)c3nccn3n2)c(=O)[nH]1 [Example 153, 5-(8-((1S,2S)-2-(6-(trifluoromethyl)pyridin-3-yl)cyclopropyl)imidazo[1,2-b]pyridazin-6-yl)pyrimidine-2,4(1H,3H)-dione] |
| 8.71 | 8.32 | O=c1[nH]cc(-c2cc([C@H]3C[C@@H]3c3ccc(C(F)(F)F)cn3)c3nccn3n2)c(=O)[nH]1 [Example 150, 5-(8-((1S,2S)-2-(5-(trifluoromethyl)pyridin-2-yl)cyclopropyl)imidazo[1,2-b]pyridazin-6-yl)pyrimidine-2,4(1H,3H)-dione] |
| 8.75 | 8.58 | O=c1[nH]cc(-c2cc([C@H]3C[C@@H]3c3ccccn3)c3nccn3n2)c(=O)[nH]1 [Example 159, 5-(8-((1S,2S)-2-(pyridin-2-yl)cyclopropyl)imidazo[1,2-b]pyridazin-6-yl)pyrimidine-2,4(1H,3H)-dione] |
| 8.77 | 8.28 | O=c1[nH]cc(-c2cc([C@H]3C[C@@H]3c3ccc(OC(F)F)nc3)c3nccn3n2)c(=O)[nH]1 [Example 140, 5-(8-((1S,2S)-2-(6-(difluoromethoxy)pyridin-3-yl)cyclopropyl)imidazo[1,2-b]pyridazin-6-yl)pyrimidine-2,4(1H,3H)-dione] |
| 8.79 | 8.36 | O=c1[nH]cc(-c2cc([C@H]3C[C@@H]3c3cccnc3)c3nccn3n2)c(=O)[nH]1 [Example 162, 5-(8-((1S,2S)-2-(pyridin-3-yl)cyclopropyl)imidazo[1,2-b]pyridazin-6-yl)pyrimidine-2,4(1H,3H)-dione] |
| 8.89 | 8.33 | O=c1[nH]cc(-c2cc([C@H]3C[C@@H]3c3ccc(OC(F)F)cn3)c3nccn3n2)c(=O)[nH]1 [Example 137, 5-(8-((1S,2S)-2-(5-(difluoromethoxy)pyridin-2-yl)cyclopropyl)imidazo[1,2-b]pyridazin-6-yl)pyrimidine-2,4(1H,3H)-dione] |
| 9.11 | 8.21 | O=c1[nH]cc(-c2cc([C@H]3C[C@@H]3c3ccc4nc(C(F)(F)F)ccc4c3)c3nccn3n2)c(=O)[nH]1 [Example 131, 5-(8-((1S,2S)-2-(2-(trifluoromethyl)quinolin-6-yl)cyclopropyl)imidazo[1,2-b]pyridazin-6-yl)pyrimidine-2,4(1H,3H)-dione] |
| 9.26 | 8.60 | N#Cc1ccc([C@H]2C[C@@H]2c2cc(-c3c[nH]c(=O)[nH]c3=O)nn3c(F)cnc23)cc1 [Example 158, 4-((1S,2S)-2-(6-(2,4-dioxo-1,2,3,4-tetrahydropyrimidin-5-yl)-3-fluoroimidazo[1,2-b]pyridazin-8-yl)cyclopropyl)benzonitrile] |
